Test results: patent US20070259819A1, “Cosmetic Use of at Least Natural Tetrapeptide Ac-Ser-Asp-Lys-Pro or One of Its Analogs as a Skin Anti-Aging and Restructuring Agent” (Centre National De La Recherche Scientfique (CNRS), priority 2004, published 2007)
“Also recorded” adds a separate entry of the source. Peptide text beside a SMILES is read from it.

Key:
Format in all cases: cell-based
[1] = test system: undifferentiated keratin (CK19); test: Immunolabelling of keratin 19 in human skin explants
Protocol: (§1) This study was conducted on thirty six human skin explants obtained from breast plastic surgery.
(§2) All the explants were maintained in a state of survival in a culture medium for eight days. AcSDKP at a concentration of 10^−5 M or 10^−8 M in physiological serum was applied to the explants by topical route every day for one week. On days 2, 4, 6 and 8, three explants from each batch (control, +AcSDKP 10^−5 M+ AcSDKP 10^−8 M) were removed and prepared for histological studies. General morphology was examined and an evaluation of the expression of basal keratin (CK14), undifferentiated keratin (CK19), collagen III, collagen IV, fibronectin and glycosaminoglycan without an acid group was performed.

[2] = test system: glycosaminoglycan without an acid group; test: P.A.S. Alcian blue staining of glycosaminoglycans without acid groups in human skin explants
Protocol: as §1, §2
This effect, clearly visible at D6 and D8, is characterised by a PAS positive increase in the number of fibroblasts in the papillary dermis, especially in the band situated along the dermo-epidermal junction and by increased levels of GAGs in these fibroblasts.

collagen III = test: Immunolabelling of collagen III in human skin explants
Protocol: as §1, §2

fibronectin = test: Immunolabelling of fibronectin in human skin explants
Protocol: as §1, §2

basal keratin (CK14) = test: Immunolabelling of keratin 14 in human skin explants
Protocol: as §1, §2

collagen IV = test: Immunolabelling of collagen IV in human skin explants; conditions: D6 and D8
Protocol: as §1, §2

human skin explants = test: General morphology of human skin explants (histology); conditions: topical daily
Protocol: as §1, §2

[3] = topical daily, human skin explants, immunolabelling

CC(=O)N[C@@H](CO)C(=O)N[C@@H](CC(=O)O)C(=O)N[C@@H](CCCCN)C(=O)N1CCC[C@H]1C(=O)O [AcSDKP, CH3CO-Ser-Asp-Lys-Pro] (Ac-SDKP-OH)
Keratin 19 (CK19) expression ([1]; 10^-5 M and 10^-8 M, topical daily, immunolabelling): overexpression of the skin's dermal attachments as of D6 of treatment
Keratin 19 (CK19) expression ([1]; 10^-5 M compared with 10^-8 M): less marked effect
Glycosaminoglycan (GAGs) levels ([2]; 10^-5 M and 10^-8 M, clearly visible at D6 and D8): significant increase in the levels of these compounds in the skin
Glycosaminoglycan (GAGs) expression ([2]; 10^-5 M compared with 10^-8 M): higher level of activity
Collagen III expression (collagen III; 10^-5 M, D8): very clear overexpression of collagen III in the papillary and reticular dermis
Collagen III levels (collagen III; 10^-5 M, six days of treatment): very marked increase in collagen III levels in the papillary dermis along the dermo-epidermal junction
Collagen III level (collagen III; 10^-8 M, D8): level of collagen III increases along the dermo-epidermal junction and forms a thicker collagen band
Collagen III expression along the dermo-epidermal junction (collagen III; 10^-8 M, six days of treatment, compared with 10^-5 M): less pronounced
Fibronectin expression (fibronectin; 10^-5 M compared with 10^-8 M): greater activity
Fibronectin expression (fibronectin; [3]): fibronectin network is denser and has thicker fibres; also recorded: triggers overexpression of this protein along a dermo-epidermal junction as well as in the papillary and reticular dermis
Keratin 14 (CK14) restructuring effect (basal keratin (CK14); 10^-5 M compared with 10^-8 M): restructuring effect is greater
Keratin 14 (CK14) expression (basal keratin (CK14); [3]): gradual increase in the levels of this protein in the basal and superbasal position as of D4 of treatment
Collagen IV levels in the basal membrane (collagen IV; 10^-5 M and 10^-8 M): less pronounced than that for type III collagen
Increase in collagen IV levels (collagen IV; 10^-5 M compared with 10^-8 M): higher
General morphology: epidermal structure (human skin explants; 10^-5 M and 10^-8 M, human skin explants): triggers stimulation of the epidermal structure as of D6 of treatment
Increase in epidermal thickness (human skin explants; 10^-5 M compared with 10^-8 M): increase in epidermal thickness is greater
